Laboratory results as given in patent US7704987B1, “β-amyloid peptide inhibitors” (Prana Biotechnology Ltd, priority 1999, dated 2010).

Key:
[1] = tested on: Aβ deposited in the brains of Alzheimer's disease patients; test: Brain tissue assay: solubilisation of Aβ deposits from post-mortem AD brain (Western blot); set-up: species or system human; settings: post-mortem brain homogenate in PBS, 24 h at room temperature, Western blot (FIG. 7); compound concentrations as in Table 1
Description: Post-mortem tissues, stored at −80° C., were obtained from the NH&MRC-supported Brain Bank at the University of Melbourne, together with accompanying histopathological and clinical data. AD was assessed according to CERAD criteria (Mirra et al, 1991).
Compounds were dissolved in DMSO and diluted in a PBS mixture. Insoluble material was removed.
The cortical meninges were removed and gray matter (0.5 g) was homogenised using a DIAX 900 homogeniser (Heidolph & Co, Kelheim, Germany) for 3×30 s periods at full speed, with a 30 s rest between strokes, in 3 ml of ice-cold phosphate-buffered saline (PBS), pH 7.4, containing a mixture of protease inhibitors (BioRad, Hercules, Calif.), but without ethylene diamine tetraacetic acid (EDTA), or in the presence of test compounds or metal ions prepared in PBS. The homogenate samples were incubated for 24 h at room temperature. To obtain the PBS-extractable fraction, the homogenate was centrifuged at 100,000×g for 30 min, the supernatant removed, and divided into 1 ml aliquots. Protein in a 1 ml supernatant sample was precipitated using 1:5 ice-cold 10% trichloracetic acid (TCA), and pelleted by centrifugation at 10,000×g for 20 mins. The pellet was prepared for PAGE by boiling for 10 min in Tris-tricine SDS-sample buffer containing 8% SDS, 10% mercaptoethanol and 8M urea. Total Aβ in the cortical samples was obtained by homogenizing in 1 ml PBS and boiling in sample buffer as described above.
Tris-tricine PAGE was performed by loading samples on to 10-20% gradient gels (Novex, San Diego, Calif.), followed by transfer on to 0.2 mm nitrocellulose membrane (BioRad, Hercules, Calif.). The Aβ was detected using the following monoclonal antibodies: W02, which detects Aβ40 and Aβ42 at an epitope between residues 5 and 8; G210, which is specific for Aβ species which terminate at carboxyl residue 40; or G211, which is specific for Aβ species which terminate at carboxyl residue 42 (Ida et al, 1996), in conjunction with horseradish peroxidase(HRP)-conjugated rabbit anti-mouse IgG (Dako, Denmark), and visualised using chemiluminescence (ECL, Amersham Life Science, UK). Each gel included two or more lanes containing known quantities of synthetic Aβ (Keck Laboratory, Yale University New Haven, Conn.) as reference standards. Blot films were scanned using a Relisys scanner with transparency adapter (Tech Information Systems, Taiwan) and densitometry performed using Image 1.6 software (NIH, Bethesda, Mass.). All samples were analysed at least twice, and gel loadings and dilutions adjusted to fit within the quantifiable region of the standard curve.

[2] = target: T1, Aβ1-28 (Homo sapiens, UniProt P05067); test: 1H NMR reaction of compound with Aβ1-28; type: binding; settings: ~1 equivalent, 24 hrs in DMSO; 600 MHz 1H NMR, pH 6.9, 271 K
T1 construct: adding two equivalents of Cu^2+ to Aβ1-28
Description: 1.8 mgs of Aβ1-28 was dissolved in 5 mls DMSO was mixed with 0.33 mgs of compound KJB001 (˜1 equivalent) dissolved in 0.3 mls DMSO. The mixture was allowed to stand for 24 hrs before being freeze-dried. The resulting blue powder was dissolved in 550 μl of an aqueous solution containing 100 mM NaCl, 50 mM phosphate buffer, pH 6.9. A solution of 1.8 mgs Aβ1-28 dissolved in 550 μl of the same solution was used as a control.

[3] = tested on: cerebral cortical neuron cultures; test: LDH assay for cell death: inhibition of Aβ1-42 neurotoxicity in vitro; type: cell-based; settings: treatment alone; LDH release compared to untreated control cultures; 5 days; KJB030 dialysed, at most 20 μM; Aβ1-42 20 μM
Description: Compound KJB030 was dissolved in chelex 100-treated double distilled H2O (CH100-dH2O) at a concentration of 200 μM. Aβ1-42 was dissolved in either 200 μm KJB030 solution or in CH100-dH2O. Both solutions contained 200 μM Aβ1-42. The Aβ1-42 solutions were incubated at ambient temperature (˜20-24° C.) for 3 days. The solutions were then brought to a physiological state by adding 10× phosphate buffered saline (PBS), pH 7.4, thus bringing samples to 1×PBS. Samples were then incubated at 37° C. for 24 hr to induce aggregation of Aβ1-42. Samples were subsequently dialysed in microdialysis cups (3500 Mr cut-off) placed in 5 L PBS for 24 hr, in order to remove some of the excess KJB030 without loss of Aβ1-42.
Dialyzed samples were added to six day old cerebral cortical neuron cultures growing in Neurobasal medium with B27 supplements but without anti-oxidants (Gibco). Samples were diluted into the culture medium to a final concentration of 20 μM Aβ1-42. […]
Determination of cell death was performed using the lactate dehydrogenase (LDH) assay kit (Boehringer Mannheim). […] Culture medium was mixed with the reagents from the LDH kit as per the manufacturer's instructions and the level of LDH measured colourimetrically on a spectrophotometric 96 well plate reader at 490 nm.

T1 sequence (P05067 672-699): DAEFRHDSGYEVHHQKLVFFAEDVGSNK

| Molecule | ability to solubilise Aβ deposited in the brains of Alzheimer's disease patients [1] | reaction with His6, His13, His14 of Aβ1-28 (shift of histidine C2H peaks) [2] | % cell death [3] [%] |
| --- | --- | --- | --- |
| C1=Cc2nc1c(-c1ccccc1)c1ccc([nH]1)c(-c1ccccc1)c1nc(c(-c3ccccc3)c3ccc([nH]3)c2-c2ccccc2)C=C1.[Cl-].[Cl-].[Cl-].[Mn+3] [KJB007, 5,10,15,20-tetraphenyl-21H,23H-porphine manganese(III) chloride] | good activity |  |  |
| CC(C)(C)c1cc(C=N[C@H]2CCCC[C@@H]2N=Cc2cc(C(C)(C)C)cc(C(C)(C)C)c2[O-])c([O-])c(C(C)(C)C)c1.[Cl-].[Mn+3] [KJB002, (S,S)-(+)-N-N′-bis(3,5-di-tert-butylsalicylidene)-1-2-cyclohexane diamino manganese(III) chloride] | good activity |  |  |
| [Co+2].c1ccc2c(c1)-c1nc-2nc2[n-]c(nc3nc(nc4[n-]c(n1)c1ccccc41)-c1ccccc1-3)c1ccccc21 [KJB001, Co(II) phthalocyanine β-form] | particularly strong solubilising activity | had reacted with these residues |  |
| Aβ1-42: β-amyloid peptide 1-42, the neurotoxic agent in the LDH assay |  |  | 22 ± 3.5 |
| [Mn+2].c1ccc2c(c1)-c1nc3nc(nc4[n-]c(nc5[n-]c(nc-2n1)c1ccccc51)c1ccccc41)-c1ccccc1-3 [KJB006, Manganese(II) phthalocyanine] | good activity |  |  |
